In patent US7745390B2, “Antimicrobial peptides” (priority 2005, dated 2010):
Values after ≈ are worked out from the molar mass of the structure shown. Read-outs that look alike come from different tables or passages of the source. Square brackets hold non-standard residues; d marks the D form. Ends that are not written are not given here. Peptide text beside a SMILES is read from it.

Experiments:
B. cereus [1] = format: cell-based
Outline: (§1)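 First, peptides in 10 mM phosphate pH 7.2 with 0.03% LB meet bacteria (~5×10^6 CFU/ml). Second, incubation runs 3 h at 37 °C. Third, LB is added and plates grow overnight before OD600 reading.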

E. coli DH5a = format: cell-based
Outline: as §1

Salmonella = format: cell-based, S. typhimurium
Outline: as §1

bacteria [2] = assay: Activity in DMEM and RPMI media (lysis of bacteria); format: cell-based; set-up: key to Active in DMEM: YES: Active in DMEM; a blank means no activity; settings: Table 2; tested in DMEM and RPMI
Description: (§2) The CFU assay is the “gold standard” for evaluating antibiotics. Briefly, bacteria are grown overnight in rich medium, such as LB, and then diluted and grown in log phase for 2-4 hours. Cultures are set up as above, with the initial culture media being 10 mM phosphate buffer/0.03% LB; DMEM or RPMI; or DMEM or RPMI plus 10% serum (fetal calf, human, or mouse). After various periods of time, but generally 3 hours or less, aliquots are removed, diluted in LB at various dilutions, and plated on LB agar plates. Plates are incubated overnight at 37° C. and counted on an automatic colony counter.
In the column “Active in DMEM”, a blank means no activity. MAP stands for multiple antigenic peptide, where a number of identical peptide chains are synthesized and joined to a common core (like a dendrimer).
The peptides listed in Table 2 were tested in DMEM and RPMI, media that approximate blood and tissue conditions in vivo and those that were active under these conditions are listed in the last column (active in DMEM). […] No peptides that were all L-isomer peptides lysed bacteria in DMEM supplemented with serum.
The hydrophobic moment is a measure of amphipathicity and indicates how well the hydrophobic residues fall on one side of the helix while the hydrophilic residues fall on the opposite side is shown in column 7. This was determined using the Membrane Explorer Program (http://blanco.biomol.uci.edu/mpex/). A high number indicates a high hydrophobic moment. Column 8 again (like Table 2) indicates which of these peptides is active in DMEM.

bacteria [3] = assay: Activity in serum containing media (10% FCS in DMEM or RPMI); format: cell-based; settings: for active in serum containing media: 10% FCS in DMEM or RPMI
Description: as §2
Tests were conducted in low salt concentrations so that active peptide candidates could be identified more readily. It is important for in vivo applications that the present antimicrobial peptides be active in physiological salt concentrations (150 mM) as well as in the presence of other tissue components, such as blood plasma (serum). Serum may contain proteases that destroy peptides; the use of D-amino acids can improve protease resistance. See G12.21. […] Also active were G11.6, G11.26, G11.29, G11.30, G11.34, G11.35, G12.11, G12.19, G12.20 and G12.21. […]

B. cereus [4] = assay: CFU assay in 10% FCS/DMEM; format: cell-based; settings: 3 hrs
Description: as §2
(§3) Three preferred peptides G11.46, G12.21 and G14.15, discussed above, were further tested for antimicrobial efficacy under various conditions using the 10% FCS/DMEM assay as described under CFU assay. The incubation times with the bacteria and peptide was three hours, at which time the bacteria were diluted and plated on agar. […] The MIC for each compound is highlighted.

bacterial strains = assay: organism not typed; format: cell-based
Description: as §3
Table 9 below repeats some data presented above in Tables 6, 7, and 8.

[5] = 10 mM phosphate buffer, pH 7.2, 0.03% LB

Compound | B. cereus MIC (B. cereus [1]; pH 7.2) | IC50 (B. cereus [1]; pH 7.2) | E. coli DH5a MIC (E. coli DH5a; DH5a, pH 7.2) | IC50 (E. coli DH5a; DH5a, pH 7.2) | IC50 (Salmonella; pH 7.2) | Salmonella MIC (Salmonella; pH 7.2) | Active in DMEM (bacteria [2]) | active in serum containing media (bacteria [3]) | further results
CSCC[C@H](NC(=O)[C@H](Cc1ccccc1)NC(=O)[C@@H](CCCNC(=N)N)NC(=O)[C@@H](CCCNC(=N)N)NC(=O)[C@H](CO)NC(=O)[C@@H](NC(=O)[C@H](CC(=O)O)NC(=O)[C@H](CCCNC(=N)N)NC(=O)[C@H](Cc1c[nH]c2ccccc12)NC(=O)[C@H](CCCNC(=N)N)NC(=O)[C@H](CO)NC(=O)[C@H](CCCNC(=N)N)NC(=O)CNC(=O)[C@@H](NC(=O)[C@H](CCCNC(=N)N)NC(=O)[C@H](CO)NC(=O)[C@@H](NC(=O)[C@H](CCCNC(=N)N)NC(=O)[C@@H](NC(=O)[C@@H](C)NC(=O)[C@@H](C)NC(=O)[C@H](CCCNC(=N)N)NC(=O)[C@H](CO)NC(=O)[C@@H](NC(=O)[C@H](CO)NC(=O)[C@H](CCCNC(=N)N)NC(=O)[C@@H](N)CCC(N)=O)C(C)C)[C@@H](C)O)C(C)C)[C@@H](C)O)C(C)C)C(=O)N[C@@H](CCCNC(=N)N)C(=O)N[C@@H](CCCNC(=N)N)C(=O)O [Peptide G8.8, QRSVSRaaTRVSRTGRSRWRDVSrrFMRR] (H-QRSVSR[dA][dA]TRVSRTGRSRWRDVS[dR][dR]FMRR-OH; N-terminus and C-terminus assumed) | 2.5 µM | 1700 nM | 0.35 µM | 210 nM | 420 nM | 0.7 µM | YES | active | 
CSCC[C@H](NC(=O)[C@H](Cc1ccccc1)NC(=O)[C@@H](CCCNC(=N)N)NC(=O)[C@@H](CCCNC(=N)N)NC(=O)[C@H](CO)NC(=O)[C@@H](NC(=O)[C@H](CC(=O)O)NC(=O)[C@H](CCCNC(=N)N)NC(=O)[C@H](Cc1c[nH]c2ccccc12)NC(=O)[C@H](CCCNC(=N)N)NC(=O)[C@H](CO)NC(=O)[C@H](CCCNC(=N)N)NC(=O)CNC(=O)[C@@H](NC(=O)[C@H](CCCNC(=N)N)NC(=O)[C@H](CO)NC(=O)[C@@H](NC(=O)[C@H](CCCNC(=N)N)NC(=O)[C@@H](NC(=O)[C@@H]1CCCN1C(=O)[C@@H]1CCCN1C(=O)[C@H](CCCNC(=N)N)NC(=O)[C@H](CO)NC(=O)[C@@H](NC(=O)[C@H](CO)NC(=O)[C@H](CCCNC(=N)N)NC(=O)[C@@H](N)CCC(N)=O)C(C)C)[C@@H](C)O)C(C)C)[C@@H](C)O)C(C)C)C(=O)N[C@@H](CCCNC(=N)N)C(=O)N[C@@H](CCCNC(=N)N)C(=O)O [Peptide G8.11] (H-QRSVSRPPTRVSRTGRSRWRDVS[dR][dR]FMRR-OH; N-terminus and C-terminus assumed) | 0.75 µM | 450 nM | 0.35 µM | 210 nM | 220 nM | 0.35 µM | YES | active | 
CSCC[C@H](NC(=O)[C@H](Cc1ccccc1)NC(=O)[C@@H](CCCNC(=N)N)NC(=O)[C@@H](CCCNC(=N)N)NC(=O)[C@H](CO)NC(=O)[C@H](NC(=O)[C@@H](CCCNC(=N)N)NC(=O)[C@@H](N)CCCNC(=N)N)C(C)C)C(=O)N[C@H](CCCNC(=N)N)C(=O)N[C@@H](CCCNC(=N)N)C(=O)O [Peptide G11.34, RrvSrrFMrR] (H-R[dR][dV]S[dR][dR]FM[dR]R-OH; N-terminus and C-terminus assumed) | >10 µM | > 10000 nM | 0.7 µM | 410 nM | 1600 nM | 2.8 µM | YES | active | 
CSCC[C@@H](NC(=O)[C@H](Cc1ccccc1)NC(=O)[C@@H](CCCNC(=N)N)NC(=O)[C@@H](CCCNC(=N)N)NC(=O)[C@H](CO)NC(=O)[C@H](NC(=O)[C@H](CCCNC(=N)N)NC(=O)[C@@H](N)CCCNC(=N)N)C(C)C)C(=O)N[C@@H](CCCNC(=N)N)C(=O)N[C@@H](CCCNC(=N)N)C(=O)O [Peptide G11.35, RRvSrrFmRR] (H-RR[dV]S[dR][dR]F[dM]RR-OH; N-terminus and C-terminus assumed) | >10 µM | > 10000 nM | 0.7 µM | 410 nM | 3250 nM | 5.7 µM | YES | active | 
CN[C@H](CC(C)C)C(=O)N[C@H]1C(=O)N[C@@H](CC(N)=O)C(=O)N[C@H]2C(=O)N[C@H]3C(=O)N[C@H](C(=O)N[C@H](C(=O)O)c4cc(O)cc(O)c4-c4cc3ccc4O)[C@H](O)c3ccc(c(Cl)c3)Oc3cc2cc(c3O[C@@H]2O[C@H](CO)[C@@H](O)[C@H](O)[C@H]2O[C@H]2C[C@](C)(N)[C@H](O)[C@H](C)O2)Oc2ccc(cc2Cl)[C@H]1O [vancomycin, reference compound] |  |  |  |  |  |  |  |  | % Survival (CFU Assay) (B. cereus [4]; 0.08 uM): 97.67%; % Survival (CFU Assay) (B. cereus [4]; 0.16 uM): 113.37%; % Survival (CFU Assay) (B. cereus [4]; 0.32 uM): 79.59%; % Survival (CFU Assay) (B. cereus [4]; 0.63 uM): 63.73%; % Survival (CFU Assay) (B. cereus [4]; 1.25 uM): 9.06%; % Survival (CFU Assay) (B. cereus [4]; 2.5 uM): 1.09%; MIC (bacterial strains; 3 h): > 10 µM; MIC (bacterial strains; Bacillus cereus, ATCC53522, 3 h): 2.5 µM (≈ 3.62 µg/mL)
CRRVSRRFMRRC [G11.29 CYC] |  |  |  |  |  |  | YES | active | B. cereus MIC (B. cereus [1]; [5]): 1.39 µM; IC50 (B. cereus [1]; 10 mM phosphate buffer, pH 7.2, 0.03% LB, read-out: B. cereus IC50): 890 nM; E. coli DH5a MIC (E. coli DH5a; [5]): 1.4 µM; IC50 (E. coli DH5a; 10 mM phosphate buffer, pH 7.2, 0.03% LB, read-out: E. coli DH5a IC50): 750 nM; Salmonella MIC (Salmonella; [5]): 2.8 µM; IC50 (Salmonella; 10 mM phosphate buffer, pH 7.2, 0.03% LB, read-out: Salmonella IC50): 1750 nM
RDVSRRFMRRGSRDVSRRFMRR [Peptide G11.6] | 2.4 µM | 890 nM | 0.7 µM | 450 nM | 890 nM | 1.4 µM | YES | active | 
RDVSRRFMRRGSRDVSRRFMRRGSRDVSRRFMRR [Peptide G11.26] | 0.35 µM | 210 nM | 0.7 µM | 400 nM | 210 nM | 0.35 µM | YES | active | 
RRVSRPPMRRYRSRRPRRLV [Peptide G12.20] | 0.35 µM | 210 nM | 0.73 µM | 230 nM | 420 nM | 1.4 µM | YES | active | 
RRVSRPPPRRYRSRRPRRLV [Peptide G12.19] | 0.35 µM | 210 nM | 0.75 µM | 220 nM | 730 nM | 1.38 µM | YES | active | 
RRVSRRFMRRYRSRRPRRLV [Peptide G12.11] | 0.35 µM | 210 nM | 0.75 µM | 210 nM | 410 nM | 0.65 µM | YES | active | 
RRVSRRPMRRYRSRRPRRLV [Peptide G12.12] | 0.35 µM | 210 nM | 0.35 µM | 210 nM | 210 nM | 0.35 µM | YES |  | active in physiological salt concentrations (150 mM) and presence of serum (bacteria [3]): active in such conditions
